From patent US10188634B2, “3-(3H-imidazo[4,5-C]pyridin-2-yl)-1 H-pyrazolo[4,3-B]pyridines and therapeutic uses thereof” (Samumed, LLC, priority 2015, dated 2019) come the findings set out here.

What all share (assay type): cell-based
The test system of one assay is SW480 colon cancer cells. Nature of the assay: Cell viability assay (CellTiter-Blue) in SW480 colon cancer cells. The note with it: Homo sapiens, 96 h; for inhibition at 10 µM: four days, CellTiter-Blue, read-out: percent inhibition at 10 μM (given for EC50 of >10 μM); for EC50: four days incubation, CellTiter-Blue cell viability. The method, boiled down: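 Four-day exposure of SW480 cells (~2×10^3/well) to compound from 10 μM down to 0.004 μM in 1:3 steps, in duplicate. Resorufin fluorescence from CellTiter-Blue after ~3 h served as the viability read-out. EC50 values came from nonlinear curve fits, with % inhibition at 10 μM given where EC50 >10 μM.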
On the technique in general: Alamar Blue is a resazurin reagent that responds to reducing activity.

In the next assay the test system is IL-6 in THP-1 cells. Kind of assay: Inhibition of IL-6 in LPS-stimulated THP-1 human monocyte cells (HTRF). As to conditions: IL-6 HTRF; for EC50: 500 ng/mL LPS, 22 hours; for inhibition at 10 µM: LPS, read-out: percent inhibition in brackets (given for EC50 >10 μM). Summed up: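 IL-6 was quantified by HTRF ratio after LPS (500 ng/mL, 22 h) stimulation of THP-1 monocytes pretreated 2 h with compound, 10-point 1:3 dilutions from 10 μM, 0.1% DMSO. Cells were held in 1% FBS for 24 h beforehand. Values normalised to DMSO; four-parameter EC50, or % inhibition at 10 μM above that.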

Assay [1] relates to LL29 cells (primary human fibroblasts derived from IPF patients) treated with TGF-β1, α-smooth muscle actin. Kind of assay: Inhibition of the fibrotic process: αSMA staining in TGF-β1 treated primary human fibroblasts from IPF patients (LL29 cells). The note with it: Fibroblast, 96 h; for EC50: LL29 cells treated with TGF-β1 (20 ng/mL), 4 days; for inhibition at 10 µM: LL29 cells treated with TGF-β1, 4 days, read-out: percent inhibition in brackets (given for EC50 >10 μM).

A value given as a limit tells only on which side of the number the result lay.

By inhibition is commonly meant how much of the control response was suppressed. One may read the EC50 as the concentration at which the effect is half-maximal. Consider `CN(C)CCNc1cc(F)cc(-c2cncc3[nH]c(-c4n[nH]c5ccc(-c6cncc(OCCN7CCCC7)c6)nc45)nc23)c1` [Compound 742, N^1-(3-Fluoro-5-(2-(5-(5-(2-(pyrrolidin-1-yl)ethoxy)pyridin-3-yl)-1H-pyrazolo[4,3-b]pyridin-3-yl)-3H-imidazo[4,5-c]pyridin-7-yl)phenyl)-N^2,N^2-dimethylethane-1,2-diamine], for which the inhibition at 10 µM in the assay with SW480 colon cancer cells worked out at 8.2%; in assay [1] it was 0%. The EC50 in the assay on SW480 colon cancer cells was > 10 µM; in the assay on IL-6 in THP-1 cells, 8.86 µM; in assay [1], > 10 µM.

In the case of `Cn1cc(-c2ccc3[nH]nc(-c4nc5c(-c6cc(F)cc(CNS(C)(=O)=O)c6)cncc5[nH]4)c3n2)cn1` [Compound 720, N-(3-Fluoro-5-(2-(5-(1-methyl-1H-pyrazol-4-yl)-1H-pyrazolo[4,3-b]pyridin-3-yl)-3H-imidazo[4,5-c]pyridin-7-yl)benzyl)methanesulfonamide], the values for the inhibition at 10 µM (in the assay on SW480 colon cancer cells; in the assay on IL-6 in THP-1 cells; in assay [1]) were 0%, 44.7% and 3.8%, respectively. Moreover, the EC50 (with SW480 colon cancer cells; in the assay with IL-6 in THP-1 cells; in assay [1]) was > 10 µM throughout.

Take `Cc1ccncc1-c1ccc2[nH]nc(-c3nc4c(-c5ccncc5)cncc4[nH]3)c2n1` [Compound 117, 5-(4-Methylpyridin-3-yl)-3-(7-(pyridin-4-yl)-3H-imidazo[4,5-c]pyridin-2-yl)-1H-pyrazolo[4,3-b]pyridine]: the figures for the inhibition at 10 µM (with SW480 colon cancer cells; in the assay with IL-6 in THP-1 cells; in assay [1]) were 2.8%, 43.5% and 0%, respectively. Besides, the EC50 (in the assay on SW480 colon cancer cells; with IL-6 in THP-1 cells; in assay [1]) was > 10 µM each time.

Regarding `Cn1cc(-c2ccc3[nH]nc(-c4nc5c(-c6cccc(F)c6)cncc5[nH]4)c3n2)cn1` [Compound 480, 3-(7-(3-Fluorophenyl)-3H-imidazo[4,5-c]pyridin-2-yl)-5-(1-methyl-1H-pyrazol-4-yl)-1H-pyrazolo[4,3-b]pyridine], the results for the inhibition at 10 µM (with SW480 colon cancer cells; in the assay on IL-6 in THP-1 cells; in assay [1]) were 1.7%, 9.7% and 4.2%, respectively. In addition, the concentration for a half-maximal effect (EC50) (in the assay with SW480 colon cancer cells; with IL-6 in THP-1 cells; in assay [1]) was > 10 µM throughout.

With `Cc1cn(-c2cncc3[nH]c(-c4n[nH]c5ccc(-c6cncc(NC(=O)CC(C)C)c6)nc45)nc23)cn1` [Compound 198, 3-Methyl-N-(5-(3-(7-(4-methyl-1H-imidazol-1-yl)-3H-imidazo[4,5-c]pyridin-2-yl)-1H-pyrazolo[4,3-b]pyridin-5-yl)pyridin-3-yl)butanamide], the values for the inhibition at 10 µM (with SW480 colon cancer cells; in the assay with IL-6 in THP-1 cells; in assay [1]) were 4.2%, 14.5% and 0%, respectively. Moreover, the 50% effective concentration (EC50) (in the assay on SW480 colon cancer cells; in the assay with IL-6 in THP-1 cells; in assay [1]) was > 10 µM in each case.

On to `CCNCc1cncc(-c2ccc3[nH]nc(-c4nc5c(-c6ccoc6)cncc5[nH]4)c3n2)c1` [Compound 286, N-((5-(3-(7-(Furan-3-yl)-3H-imidazo[4,5-c]pyridin-2-yl)-1H-pyrazolo[4,3-b]pyridin-5-yl)pyridin-3-yl)methyl)ethanamine], for which the concentration for a half-maximal effect (EC50) with SW480 colon cancer cells was 2.13 µM; in the assay with IL-6 in THP-1 cells, > 10 µM; in assay [1], > 10 µM. The figures for the inhibition at 10 µM (in the assay on IL-6 in THP-1 cells; in assay [1]) were 14.5% and 0%, respectively.

With `O=C(Nc1cncc(-c2ccc3[nH]nc(-c4nc5c(-c6ccncc6)cncc5[nH]4)c3n2)c1)C1CCCCC1` [Compound 135, N-(5-(3-(7-(pyridin-4-yl)-3H-imidazo[4,5-c]pyridin-2-yl)-1H-pyrazolo[4,3-b]pyridin-5-yl)pyridin-3-yl)cyclohexanecarboxamide], the inhibition at 10 µM in the assay on SW480 colon cancer cells was found to be 1.4%; in the assay on IL-6 in THP-1 cells it was 26.6%; in assay [1], 0%. Moreover, the concentration for a half-maximal effect (EC50) in the assay with SW480 colon cancer cells is > 10 µM; in the assay with IL-6 in THP-1 cells, > 1 µM; in assay [1] it was > 10 µM.

On to `Fc1ccc(-c2cncc3[nH]c(-c4n[nH]c5ccc(-c6cncnc6)nc45)nc23)cc1` [Compound 55, 3-(7-(4-Fluorophenyl)-3H-imidazo[4,5-c]pyridin-2-yl)-5-(pyrimidin-5-yl)-1H-pyrazolo[4,3-b]pyridine], for which the inhibition at 10 µM in the assay with SW480 colon cancer cells is 0%; in the assay with IL-6 in THP-1 cells, 13.4%; in assay [1], 21.4%. For the same compound, the concentration for a half-maximal effect (EC50) (in the assay on SW480 colon cancer cells; with IL-6 in THP-1 cells; in assay [1]) was > 10 µM throughout.

Turning to `O=C(Nc1cncc(-c2ccc3[nH]nc(-c4nc5c(-c6ccccn6)cncc5[nH]4)c3n2)c1)c1ccccc1` [Compound 151, N-(5-(3-(7-(Pyridin-2-yl)-3H-imidazo[4,5-c]pyridin-2-yl)-1H-pyrazolo[4,3-b]pyridin-5-yl)pyridin-3-yl)benzamide], the values for the inhibition at 10 µM (with SW480 colon cancer cells; with IL-6 in THP-1 cells; in assay [1]) were 16.9%, 20.3% and 38.8%, respectively. For the same compound, the EC50 (with SW480 colon cancer cells; with IL-6 in THP-1 cells; in assay [1]) was > 10 µM in each case.

As for `CCCC(=O)Nc1cncc(-c2ccc3[nH]nc(-c4nc5c(-c6cc(F)cc(CNS(C)(=O)=O)c6)cncc5[nH]4)c3n2)c1` [Compound 465, N-(5-(3-(7-(3-Fluoro-5-(methylsulfonamidomethyl)phenyl)-3H-imidazo[4,5-c]pyridin-2-yl)-1H-pyrazolo[4,3-b]pyridin-5-yl)pyridin-3-yl)butyramide], the inhibition at 10 µM in the assay on SW480 colon cancer cells was 1.8%; in the assay on IL-6 in THP-1 cells, 28.6%. The EC50 with SW480 colon cancer cells is > 10 µM; with IL-6 in THP-1 cells it was > 10 µM; in assay [1], 2.35 µM.

As for `Cn1cc(-c2ccc3[nH]nc(-c4nc5c(-c6ccc(F)cc6)cncc5[nH]4)c3n2)c(CO)n1` [Compound 1084, (4-(3-(7-(4-Fluorophenyl)-3H-imidazo[4,5-c]pyridin-2-yl)-1H-pyrazolo[4,3-b]pyridin-5-yl)-1-methyl-1H-pyrazol-3-yl)methanol], the values for the inhibition at 10 µM with SW480 colon cancer cells and with IL-6 in THP-1 cells were 5.7% and 4.1%, respectively. In addition, the EC50 with SW480 colon cancer cells was > 10 µM; with IL-6 in THP-1 cells, > 10 µM; in assay [1] it was 2.3 µM.

In the case of `C1=C(c2ccc3[nH]nc(-c4nc5c(-c6ccc7c(c6)OCO7)cncc5[nH]4)c3n2)CCNC1` [Compound 1064, 3-(7-(Benzo[d][1,3]dioxol-5-yl)-3H-imidazo[4,5-c]pyridin-2-yl)-5-(1,2,3,6-tetrahydropyridin-4-yl)-1H-pyrazolo[4,3-b]pyridine], the values for the inhibition at 10 µM with SW480 colon cancer cells and in the assay on IL-6 in THP-1 cells were 0.1% and 21.1%, respectively. In addition, the half-maximal effective concentration (EC50) was > 10 µM in the assay with SW480 colon cancer cells, > 10 µM in the assay on IL-6 in THP-1 cells and 4.03 µM in assay [1].

Regarding `Cc1ccc(-c2cncc3[nH]c(-c4n[nH]c5ccc(C6=CCNCC6)nc45)nc23)s1` [Compound 686, 3-(7-(5-Methylthiophen-2-yl)-3H-imidazo[4,5-c]pyridin-2-yl)-5-(1,2,3,6-tetrahydropyridin-4-yl)-1H-pyrazolo[4,3-b]pyridine], the EC50 is 6.11 µM with SW480 colon cancer cells, > 10 µM in the assay with IL-6 in THP-1 cells and 4.91 µM in assay [1]. Moreover, the inhibition at 10 µM in the assay on IL-6 in THP-1 cells was 23.8%.

`COc1cccc(-c2cncc3[nH]c(-c4n[nH]c5ccc(-c6cncc(OC7CCNCC7)c6)nc45)nc23)c1` [Compound 980, 3-(7-(3-Methoxylphenyl)-3H-imidazo[4,5-c]pyridin-2-yl)-5-(5-(piperidin-4-yloxy)pyridin-3-yl)-1H-pyrazolo[4,3-b]pyridine]: the inhibition at 10 µM in the assay with SW480 colon cancer cells is 19.6%; with IL-6 in THP-1 cells, 34.1%. Besides, the figures for the 50% effective concentration (EC50) (in the assay with SW480 colon cancer cells; in the assay with IL-6 in THP-1 cells; in assay [1]) were > 10 µM, > 10 µM and 2.72 µM, respectively.

Consider `CC(C)C(=O)Nc1cncc(-c2ccc3[nH]nc(-c4nc5c(N6CCN(C)CC6)cncc5[nH]4)c3n2)c1` [Compound 233, N-(5-(3-(7-(4-Methylpiperazin-1-yl)-3H-imidazo[4,5-c]pyridin-2-yl)-1H-pyrazolo[4,3-b]pyridin-5-yl)pyridin-3-yl)isobutyramide], for which the inhibition at 10 µM in the assay with SW480 colon cancer cells worked out at 1%; with IL-6 in THP-1 cells, 36.7%; in assay [1] it was 3.4%. Moreover, the EC50 (with SW480 colon cancer cells; in the assay on IL-6 in THP-1 cells; in assay [1]) was > 10 µM each time.

Take `Oc1cncc(-c2ccc3[nH]nc(-c4nc5c(-c6cccnc6)cncc5[nH]4)c3n2)c1` [Compound 537, 5-(3-(7-(Pyridin-3-yl)-3H-imidazo[4,5-c]pyridin-2-yl)-1H-pyrazolo[4,3-b]pyridin-5-yl)pyridin-3-ol]: the inhibition at 10 µM was 7.6% with SW480 colon cancer cells and 49.8% in assay [1]. For the same compound, the EC50 in the assay on SW480 colon cancer cells was > 10 µM; with IL-6 in THP-1 cells it was 0.414 µM; in assay [1], > 10 µM.

In the case of `CN(C)Cc1cncc(-c2ccc3[nH]nc(-c4nc5c(-c6cccs6)cncc5[nH]4)c3n2)c1` [Compound 321, N,N-dimethyl-1-(5-(3-(7-(thiophen-2-yl)-3H-imidazo[4,5-c]pyridin-2-yl)-1H-pyrazolo[4,3-b]pyridin-5-yl)pyridin-3-yl)methanamine], the 50% effective concentration (EC50) in the assay with SW480 colon cancer cells was 4.74 µM; with IL-6 in THP-1 cells it was > 10 µM; in assay [1], 7.46 µM. Moreover, the inhibition at 10 µM with IL-6 in THP-1 cells worked out at 22.2%.
